Data on 3 compounds can be found in patent publication US5366963A, “Gangliosides with immunosuppressive ceramide moieties” (The Regents of the University of California, priority 1993, dated 1994).

“And” between values parts separate entries of the source, which are not always exact repeats. Equal entries are not always repeated. Where two headings read alike, the source gives them in different places. Bounds are passed on as bounds.

Assay [1] concerns normal human peripheral blood mononuclear cells (PBMC). The assay can be described thus: cells. It counts as cell-based. Particulars: for inhibition at 5 µM / inhibition at 10 µM / inhibition at 2.5 µM: Homo sapiens, PBMC.
The test system of assay [2] is humoral or cellular immunity. The note with it: Presti et al. 1989; cited from earlier work.

On to `CCCCCCCCCCCCC/C=C/[C@@H](O)[C@H](CO[C@@H]1O[C@H](CO)[C@@H](O[C@@H]2O[C@H](CO)[C@H](O[C@@H]3O[C@H](CO)[C@H](O)[C@H](O)[C@H]3NC(C)=O)[C@H](O[C@]3(C(=O)O)C[C@H](O)[C@@H](NC(C)=O)[C@H]([C@H](O)[C@H](O)CO)O3)[C@H]2O)[C@H](O)[C@H]1O)NC(=O)CCCCCCCCCCCCCCCCC` [d18:1-C18:0 GM2], for which, in assay [1], the inhibition at 5 µM worked out at 47% and 10 µM produced 86% inhibition. Further, the inhibition at 2.5 µM in assay [1] (read-out: % inhibition) turned out to be 31%.
Regarding `CCCCCCCCCCCCC/C=C/[C@@H](O)[C@H](CO[C@@H]1O[C@H](CO)[C@@H](O[C@@H]2O[C@H](CO)[C@H](O[C@@H]3O[C@H](CO)[C@H](O)[C@H](O)[C@H]3NC(C)=O)[C@H](O[C@]3(C(=O)O)C[C@H](O)[C@@H](NC(C)=O)[C@H]([C@H](O)[C@H](O)CO)O3)[C@H]2O)[C@H](O)[C@H]1O)NC(=O)C(O)CCCCCCCCCCCCCCCC` (stereo partly drawn) [d18:1-hC18:0 GM2], in assay [1], the “cpm (3H-thymidine uptake)” value was 16.7 cpm × 10^-3 and 11.4 cpm × 10^-3 and 12.9 cpm × 10^-3; the “immunosuppressive activity (in words)” value is listed as “less immunosuppressive than the non-hydroxylated species”; the inhibition at 5 µM stood at 30%; the inhibition at 10 µM came out at 21%. Moreover, in assay [1] (read-out: % inhibition (NI)), the inhibition at 2.5 µM is < 0%.
Turning to GM1 ganglioside, the “suppressive effect on humoral or cellular immunity in vivo” value in assay [2] is on record as “no evidence of a suppressive effect”.

What is called inhibition is the percentage by which the read-out fell short of the control.
